Measured values: US20160355483A1, “COMPOUND BINDING TO PPARG BUT NOT ACTING AS PROMOTER AND PHARMACEUTICAL COMPOSITION FOR TREATING PPARG-RELATED DISEASES CONTAINING SAME AS ACTIVE INGREDIENT” (Hyundai Pharm Co., Ltd., priority 2014, published 2016)
“Also recorded” adds a separate entry of the source.

Legend:
[1] = target: T1, PPARG (peroxisome proliferator activated receptor-gamma), GST-PPARG-LBD (Homo sapiens, UniProt P37231); assay: LanthaScreen TR-FRET PPARG Competitive Binding Assay; set-up: key: “+” indicates the degree of the binding activity, and as the number of “+” increases, the binding activity is stronger; ++: “+” indicates the degree of the binding activity, and as the number of “+” increases, the binding activity is stronger; +++: “+” indicates the degree of the binding activity, and as the number of “+” increases, the binding activity is stronger; ++++: “+” indicates the degree of the binding activity, and as the number of “+” increases, the binding activity is stronger; conditions: degree of binding activity
T1 construct: 15 μL of 5 nM GST-PPARG-LBD and 5 nM Tb-GST-antibody were added; purchased Invitrogen PV4894
T1 sequence (P37231 238-503 limits assumed): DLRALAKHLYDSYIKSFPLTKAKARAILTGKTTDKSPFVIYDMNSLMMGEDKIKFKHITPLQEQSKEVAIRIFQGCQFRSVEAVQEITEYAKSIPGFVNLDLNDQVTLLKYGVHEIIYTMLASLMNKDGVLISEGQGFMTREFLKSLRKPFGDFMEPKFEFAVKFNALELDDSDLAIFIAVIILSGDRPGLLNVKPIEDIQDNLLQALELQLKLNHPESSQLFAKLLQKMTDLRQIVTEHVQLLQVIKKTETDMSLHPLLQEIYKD
In short: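 GST-tagged human PPARG LBD in a TR-FRET competitive binding kit, 1 h at room temperature. Read-out is the 518/488 nm emission ratio (340 nm excitation); activity = 100% − compound ratio/vehicle ratio, compared with rosiglitazone.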

[2] = target: T2, CYP 2C19 (Homo sapiens, UniProt P33261); assay: CYP (cytochrome P450)-suppressing effect, BD GENTEST kit; type: in vitro ADME
T2 construct: purchased BD GENTEST 459400
Experimental: (§1) To evaluate the CYP (cytochrome P450)-suppressing activity of the compounds prepared in the examples of the invention, the following experiment was performed.
(§2) The analysis of CYP1A2, 2C19, and 3A4 suppressing activity was performed by using a BD GENTEST (459100, 459400, and 459500) kit, and the analysis of CYP 2C9- and 2D6-suppressing activity was performed by using an Invitrogen (P2861 and P2862) kit.
(§3) When the BD GENTEST kit was used, the compounds of the present invention were diluted in acetonitrile at the final concentration of 50×. The NADPH-Cofactor mix was prepared by diluting the Cofactor, G6PDH, and control protein provided by the kit in DW according to the instructed concentration. 4 μL of the compound of the example (50×) was mixed with 96 μL of NADPH-Cofactor mix in a 96-well plate, followed by pre-incubation in a 37° C. incubator for 10 minutes.
(§4) The enzyme/substrate mixture was diluted in the buffer (0.5 M potassium phosphate, pH 7.4) provided by the kit according to the instructed concentration. Each CYP450 enzyme substrate was diluted in DW at a desired concentration respectively according to the corresponding types of CYP450. 100 μL of the enzyme/substrate mixture was loaded in the plate when the pre-incubation had been completed, followed by reaction in a 37° C. incubator for 15 minutes (1A2) and 30 minutes (3A4 and 2C19). Upon completion of the reaction, the mixture was transferred to a white plate, and the fluorescent wavelength was measured with a microplate reader (1A2, 2C19 excitation 410 nm, emission 460 nm; 3A4, excitation 409 nm, emission 530 nm).
(§5) The test results were calculated by the following formula:
(§6) (1−(fluorescence value of the test material/fluorescence value of the vehicle))×100%.

[3] = target: T3, CYP 3A4 (Homo sapiens, UniProt P08684); assay: as above; type: in vitro ADME
T3 construct: purchased BD GENTEST 459500
Experimental: as §1, §2, §3, §4, §5, §6

[4] = target: T4, CYP1A2 (Homo sapiens, UniProt P05177); assay: as above; type: in vitro ADME
T4 construct: purchased BD GENTEST 459100
T4 sequence (P05177 1-516): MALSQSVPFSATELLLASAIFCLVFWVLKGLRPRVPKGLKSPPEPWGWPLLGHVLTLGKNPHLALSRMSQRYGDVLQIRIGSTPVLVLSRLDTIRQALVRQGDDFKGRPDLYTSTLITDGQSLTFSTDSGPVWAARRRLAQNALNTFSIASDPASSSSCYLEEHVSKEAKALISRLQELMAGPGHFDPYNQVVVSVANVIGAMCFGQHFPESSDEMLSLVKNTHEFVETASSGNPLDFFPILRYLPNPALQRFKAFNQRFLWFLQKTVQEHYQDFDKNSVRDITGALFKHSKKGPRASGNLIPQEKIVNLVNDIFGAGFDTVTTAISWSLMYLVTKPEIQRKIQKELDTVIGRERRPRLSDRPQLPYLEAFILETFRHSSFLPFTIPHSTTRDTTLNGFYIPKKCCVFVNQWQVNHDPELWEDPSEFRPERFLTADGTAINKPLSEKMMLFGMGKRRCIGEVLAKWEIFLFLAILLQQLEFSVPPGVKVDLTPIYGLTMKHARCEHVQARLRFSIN
Experimental: as §1, §2, §3, §4, §5, §6

[5] = target: T5, CYP 2C9 (Homo sapiens, UniProt P11712); assay: CYP (cytochrome P450)-suppressing effect, Invitrogen Vivid kit; type: in vitro ADME
T5 construct: purchased Invitrogen P2861
Experimental: as §1, §2
(§7) When the Invitrogen kit was used, the compounds of the present invention were diluted in Vivid CYP450 reaction buffer (1×) at the final concentration of 2.5×. The P450 BACULOSOMES sample and Regeneration system (100×) were diluted in Vivid CYP450 reaction buffer (1×) at different proper concentrations. 80 μL of the compound of the invention (2.5×) and […] of the diluted P450 BACULOSOMES sample mixture were mixed in a U-bottom 96-well plate, followed by pre-incubation for 10 minutes. Vivid CYP450 Substrate and NADP+ (100×) were diluted in Vivid CYP450 reaction buffer (1×) at a desired concentration, respectively, according to their corresponding types of CYP450 and substrates. 20 μL of Substrate-NADP+ mix was loaded in the plate when the pre-incubation had been completed, followed by reaction for 1 hour. Upon completion of the reaction, the reaction mixture was transferred in a white plate and fluorescent wavelength was measured with a microplate reader (2C9 excitation 415 nm, emission 460 nm, 2D6 excitation 400 nm, emission 502 nm).
as §5, §6

[6] = target: T6, CYP 2D6 (Homo sapiens, UniProt P10635); assay: as above; type: in vitro ADME
T6 construct: purchased Invitrogen P2862
Experimental: as §1, §2, §7, §5, §6

[7] = test system: CYP isozymes 1A2, 2C9, 2C19, and 2D6; assay: CYP suppression compared with comparative examples (Table 3); type: in vitro ADME; conditions: result in words
Experimental: as §1, §2, §7, §3, §4, §5, §6

T6 sequence (P10635 whole entry): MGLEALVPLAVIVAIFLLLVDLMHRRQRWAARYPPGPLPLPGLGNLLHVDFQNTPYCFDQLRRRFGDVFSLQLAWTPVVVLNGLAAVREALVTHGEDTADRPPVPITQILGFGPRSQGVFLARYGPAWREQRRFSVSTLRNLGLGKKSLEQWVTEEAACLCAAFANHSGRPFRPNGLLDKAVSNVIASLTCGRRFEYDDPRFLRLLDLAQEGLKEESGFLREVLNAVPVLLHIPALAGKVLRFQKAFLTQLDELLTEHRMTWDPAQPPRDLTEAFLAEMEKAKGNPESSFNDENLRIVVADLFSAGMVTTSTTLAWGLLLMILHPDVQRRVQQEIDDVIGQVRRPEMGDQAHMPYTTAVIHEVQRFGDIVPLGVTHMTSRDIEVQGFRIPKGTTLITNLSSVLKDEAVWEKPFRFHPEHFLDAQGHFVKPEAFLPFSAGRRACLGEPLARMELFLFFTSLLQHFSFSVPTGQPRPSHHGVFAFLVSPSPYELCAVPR
T2 sequence (P33261 whole entry): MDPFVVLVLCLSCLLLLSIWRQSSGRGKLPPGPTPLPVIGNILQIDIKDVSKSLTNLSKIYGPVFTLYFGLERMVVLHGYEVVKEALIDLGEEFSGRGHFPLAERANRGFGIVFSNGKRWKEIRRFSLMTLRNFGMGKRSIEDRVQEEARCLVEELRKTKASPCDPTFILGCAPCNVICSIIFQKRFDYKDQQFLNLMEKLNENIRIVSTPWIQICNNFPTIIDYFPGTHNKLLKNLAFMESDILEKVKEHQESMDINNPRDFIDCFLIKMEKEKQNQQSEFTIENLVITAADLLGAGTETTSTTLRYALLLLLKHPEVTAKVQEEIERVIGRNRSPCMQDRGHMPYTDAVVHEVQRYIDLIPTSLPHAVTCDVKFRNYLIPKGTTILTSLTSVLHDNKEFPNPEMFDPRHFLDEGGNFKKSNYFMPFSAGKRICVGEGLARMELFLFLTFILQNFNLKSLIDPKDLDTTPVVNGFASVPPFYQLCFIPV
T3 sequence (P08684 whole entry): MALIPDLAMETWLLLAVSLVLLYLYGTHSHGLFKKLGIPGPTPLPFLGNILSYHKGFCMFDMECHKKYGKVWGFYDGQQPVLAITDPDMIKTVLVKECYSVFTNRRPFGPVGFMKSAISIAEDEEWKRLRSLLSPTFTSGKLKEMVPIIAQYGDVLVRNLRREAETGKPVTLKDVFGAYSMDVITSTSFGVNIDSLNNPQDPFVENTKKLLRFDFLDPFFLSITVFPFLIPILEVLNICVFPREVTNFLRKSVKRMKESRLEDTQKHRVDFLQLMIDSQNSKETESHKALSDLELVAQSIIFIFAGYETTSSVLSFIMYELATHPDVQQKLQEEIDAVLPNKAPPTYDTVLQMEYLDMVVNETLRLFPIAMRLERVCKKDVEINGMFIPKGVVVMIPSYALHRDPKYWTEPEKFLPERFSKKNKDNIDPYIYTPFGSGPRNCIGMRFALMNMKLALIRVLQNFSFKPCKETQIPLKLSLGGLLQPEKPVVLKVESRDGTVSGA
T5 sequence (P11712 whole entry): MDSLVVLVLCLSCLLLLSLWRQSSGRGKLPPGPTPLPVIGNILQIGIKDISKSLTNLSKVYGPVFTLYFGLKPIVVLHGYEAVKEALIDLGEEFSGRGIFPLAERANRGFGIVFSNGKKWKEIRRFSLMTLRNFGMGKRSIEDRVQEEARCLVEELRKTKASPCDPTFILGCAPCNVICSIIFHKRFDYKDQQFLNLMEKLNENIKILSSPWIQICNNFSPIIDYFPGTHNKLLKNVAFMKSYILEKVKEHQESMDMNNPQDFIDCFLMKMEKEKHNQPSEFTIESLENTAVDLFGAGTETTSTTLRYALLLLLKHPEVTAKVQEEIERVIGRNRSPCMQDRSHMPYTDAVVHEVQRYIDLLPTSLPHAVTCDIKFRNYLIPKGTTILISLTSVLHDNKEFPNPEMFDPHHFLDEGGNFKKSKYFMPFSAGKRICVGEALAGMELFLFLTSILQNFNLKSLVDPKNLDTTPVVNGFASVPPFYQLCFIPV

For `C[C@H](NC(=O)c1ccc2c(c1)CCCN2Cc1cccc(-c2ccccc2C(N)=O)c1F)c1ccc([N+](=O)[O-])cc1` [Example 131, (S)-1-((2′-carbamoyl-2-fluoro-[1,1′-biphenyl]-3-yl)methyl)-N-(1-(4-nitrophenyl)ethyl)-1,2,3,4-tetrahydroquinoline-6-carboxamide], the “Binding assay (1 μLM)” value [1] was “+++”, the “CYP(10 μL, %) 2C19” value [2] was 54.84% and the “CYP(10 μL, %) 3A4” value [3] was 55.88%. For the same molecule, the “CYP(10 μL, %) 1A2” value [4] was 94.17%, the “CYP(10 μL, %) 2C9” value [5] was 52.84% and the “CYP(10 μL, %) 2D6” value [6] was 86.92%. The “suppression of CYP isozymes 1A2, 2C9, 2C19, and 2D6 compared with SR1664 and SR1824” value (“suppression … compared with SR1664 and SR1824” for short) [7] was “less than the compounds of the comparative examples; also recorded: less strongly than the compounds of the Comparative Examples”.

In the case of `C[C@H](NC(=O)c1ccc2c(c1)CCCN2Cc1cccc(-c2ccccc2C(N)=O)c1)c1ccc([N+](=O)[O-])cc1` [Example 123, (S)-1-((2′-carbamoyl-[1,1′-biphenyl]-3-yl)methyl)-N-(1-(4-nitrophenyl)ethyl)-1,2,3,4-tetrahydroquinoline-6-carboxamide], the “Binding assay (1 μLM)” value [1] is reported as “+++”, the “CYP(10 μL, %) 2C19” value [2] is reported as 58.85% and the “CYP(10 μL, %) 3A4” value [3] is reported as 52.65%. The “CYP(10 μL, %) 1A2” value [4] was 102.45%, the “CYP(10 μL, %) 2C9” value [5] was 59.36% and the “CYP(10 μL, %) 2D6” value [6] was 82.48%. The “suppression … compared with SR1664 and SR1824” value [7] was “less than the compounds of the comparative examples; also recorded: less strongly than the compounds of the Comparative Examples”.

With `C[C@H](NC(=O)c1ccc2c(c1)CCCN2Cc1ccc(-c2ccccc2C(N)=O)cc1)c1ccc(F)cc1` [Example 36, (S)-1-((2′-carbamoyl-[1,1′-biphenyl]-4-yl)methyl)-N-(1-(4-fluorophenyl)ethyl)-1,2,3,4-tetrahydroquinoline-6-carboxamide] the “Binding assay (1 μLM)” value [1] was “+++”, the “CYP(10 μL, %) 2C19” value [2] was 52.68% and the “CYP(10 μL, %) 3A4” value [3] was 58.18%. The “CYP(10 μL, %) 1A2” value [4] was 98.84%, the “CYP(10 μL, %) 2C9” value [5] was 51.03% and the “CYP(10 μL, %) 2D6” value [6] was 75.73%. For the same molecule, the “suppression … compared with SR1664 and SR1824” value [7] was “less than the compounds of the comparative examples; also recorded: less strongly than the compounds of the Comparative Examples”.

`C[C@H](NC(=O)c1ccc2c(c1)CCCN2Cc1cccc(-c2ccccc2C(=O)O)c1)c1ccc(C#N)cc1` [Example 118, (S)-3′-((6-((1-(4-cyanophenyl)ethyl)carbamoyl)-3,4-dihydroquinoline-1(2H)-yl)methyl)-[1,1′-biphenyl]-2-carboxylic acid] was tested, and the “Binding assay (1 μLM)” value [1] was “+”, the “CYP(10 μL, %) 2C19” value [2] was 74.03% and the “CYP(10 μL, %) 3A4” value [3] was 71.21%. The “CYP(10 μL, %) 1A2” value [4] was 101.50%, the “CYP(10 μL, %) 2C9” value [5] was 52.02% and the “CYP(10 μL, %) 2D6” value [6] was 94.83%. The “suppression … compared with SR1664 and SR1824” value [7] was “less than the compounds of the comparative examples; also recorded: less strongly than the compounds of the Comparative Examples”.

For `C[C@H](NC(=O)c1ccc2c(c1)OCCN2Cc1ccc(-c2ccccc2C(=O)O)cc1)c1ccc([N+](=O)[O-])cc1` [Example 60, (S)-4′-((7-((1-(4-nitrophenyl)ethyl)carbamoyl)-2H-benzo[b][1,4]oxazine-4(3H)-yl)methyl)-[1,1′-biphenyl]-2-carboxylic acid], the “Binding assay (1 μLM)” value [1] was “++”, the “CYP(10 μL, %) 2C19” value [2] was 69.60% and the “CYP(10 μL, %) 3A4” value [3] was 70.64%. For the same molecule, the “CYP(10 μL, %) 1A2” value [4] was 100.63%, the “CYP(10 μL, %) 2C9” value [5] was 80.25% and the “CYP(10 μL, %) 2D6” value [6] was 62.27%. For the same molecule, the “suppression … compared with SR1664 and SR1824” value [7] was “less than the compounds of the comparative examples; also recorded: less strongly than the compounds of the Comparative Examples”.

In the case of `C[C@H](NC(=O)c1ccc2c(c1)OCCN2Cc1ccc(-c2ccccc2C(=O)O)cc1)c1ccc(C#N)cc1` [Example 74, (S)-4′-((7-((1-(4-cyanophenyl)ethyl)carbamoyl)-2H-benzo[b][1,4]oxazine-4(3H)-yl)methyl)-[1,1′-biphenyl]-2-carboxylic acid], the “Binding assay (1 μLM)” value [1] is reported as “+”, the “CYP(10 μL, %) 2C19” value [2] is reported as 91.36% and the “CYP(10 μL, %) 3A4” value [3] is reported as 81.98%. For the same molecule, the “CYP(10 μL, %) 1A2” value [4] was 102.89%, the “CYP(10 μL, %) 2C9” value [5] was 80.68% and the “CYP(10 μL, %) 2D6” value [6] was 83.97%. The “suppression … compared with SR1664 and SR1824” value [7] was “less than the compounds of the comparative examples; also recorded: less strongly than the compounds of the Comparative Examples”.

For `C[C@H](NC(=O)c1ccc2c(c1)CCCN2Cc1ccc(-c2ccccc2C(N)=O)cc1F)c1ccc2ccccc2c1` [Example 115, (S)-1-((2′-carbamoyl-3-fluoro-[1,1′-biphenyl]-4-yl)methyl)-N-(1-(naphthalene-2-yl)ethyl)-1,2,3,4-tetrahydroquinoline-6-carboxamide], the “Binding assay (1 μLM)” value [1] was “+++”, the “CYP(10 μL, %) 2C19” value [2] was 59.33% and the “CYP(10 μL, %) 3A4” value [3] was 77.73%. For the same molecule, the “CYP(10 μL, %) 1A2” value [4] was 97.62%, the “CYP(10 μL, %) 2C9” value [5] was 63.87% and the “CYP(10 μL, %) 2D6” value [6] was 95.56%. For the same molecule, the “suppression … compared with SR1664 and SR1824” value [7] was “less than the compounds of the comparative examples; also recorded: less strongly than the compounds of the Comparative Examples”.

For `C[C@H](NC(=O)c1ccc2c(c1)CCCN2Cc1ccc(-c2ccccc2C(N)=O)cc1)c1ccc2ccccc2c1` [Example 44, (S)-1-((2′-carbamoyl-[1,1′-biphenyl]-4-yl)methyl)-N-(1-(naphthalene-2-yl)ethyl)-1,2,3,4-tetrahydroquinoline-6-carboxamide], the “Binding assay (1 μLM)” value [1] was “+++”, the “CYP(10 μL, %) 2C19” value [2] was 59.55% and the “CYP(10 μL, %) 3A4” value [3] was 70.42%. The “CYP(10 μL, %) 1A2” value [4] was 94.56%, the “CYP(10 μL, %) 2C9” value [5] was 56.40% and the “CYP(10 μL, %) 2D6” value [6] was 97.07%. The “suppression … compared with SR1664 and SR1824” value [7] was “less than the compounds of the comparative examples; also recorded: less strongly than the compounds of the Comparative Examples”.
